Drawing on patent US7638538B1, “Pharmaceutically active sulfonyl amino acid derivatives” (Laboratoires Serono S.A., priority 1999, dated 2009), this text covers IC50 for two molecules.

One may read the IC50 as the concentration that inhibits the measured activity by half. Low readings indicate greater potency in that assay, high ones weaker potency in that assay.

Structures are written as SMILES. Some results are limits rather than exact numbers.

Common to all, as to assay type: biochemical
One assay concerns the target JNK3 (Homo sapiens, UniProt P53779). The assay is described as follows: JNK3 in vitro kinase assay (SPA, GST-c-Jun substrate). How it is done: (§1) JNK 2 and 3 in vitro assays: JNK 2 and/or 3 assays are performed 96 well MTT plates, by incubation of 0.5 μg of recombinant, pre-activated GST-JNK2 with 1 μg of recombinant, biotinylated GST-c-Jun and 2 μM ^33γ-ATP (2 nCi/μl), in the presence or absence of sulfonyl amino acid inhibitors and in a reaction volume of 150 μl containing 50 mM Tris-HCl, pH 8.0; 10 mM MgCl2; 1 mM Dithiothreitol, and 100 μM NaVO4. The incubation is carried for 120 min. at R.T and stopped up by addition of 200 μl of a solution containing 250 μg of Streptavidine-coated SPA beads (Amersham, Inc.)*, 5 mM EDTA, 0.1% Trinton X-100 and 50 μM ATP, in phosphate saline buffer. After incubation for 60 minutes at RT, beads are sedimented by centrifugation at 1500×g for 5 minutes, resuspended in 200 μl of PBS containing 5 mM EDTA, 0.1% Triton X-100 and 50 μM ATP and the radioactivity measured in a scintillation β counter, following sedimentation of the beads as described above. By substituting GST-c-Jun for biotinylated GST-1ATF2 or myelin basic protein, this assay can be used to measure inhibition of preactivated p38 and ERK MAP Kinases, respectively.

In a further assay the target is ERK2 (Homo sapiens, UniProt P28482). The experiment in a line: ERK2 in vitro kinase assay (SPA, myelin basic protein substrate). As for the experimental part:
as §1

For another assay, the target named is p38 (Homo sapiens, UniProt Q16539). The assay is described as follows: p38 in vitro kinase assay (SPA, GST-ATF2 substrate). As for the experimental part:
as §1

Another assay has as its target GST-JNK2 (Homo sapiens, UniProt P45984). The experiment in a line: JNK2 in vitro kinase assay (SPA, GST-c-Jun substrate). As for the experimental part:
as §1

ERK2, sequence (P28482 whole entry, species assumed): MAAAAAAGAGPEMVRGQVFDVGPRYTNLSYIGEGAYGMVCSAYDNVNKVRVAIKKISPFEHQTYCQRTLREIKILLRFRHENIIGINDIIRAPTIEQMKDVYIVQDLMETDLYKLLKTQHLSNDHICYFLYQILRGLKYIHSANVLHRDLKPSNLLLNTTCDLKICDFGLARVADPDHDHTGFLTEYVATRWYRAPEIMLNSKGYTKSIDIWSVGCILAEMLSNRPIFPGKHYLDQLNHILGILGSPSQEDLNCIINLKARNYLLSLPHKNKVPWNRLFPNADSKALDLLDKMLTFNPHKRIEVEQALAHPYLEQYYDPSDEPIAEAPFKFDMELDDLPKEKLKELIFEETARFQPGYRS
p38, sequence (Q16539 whole entry): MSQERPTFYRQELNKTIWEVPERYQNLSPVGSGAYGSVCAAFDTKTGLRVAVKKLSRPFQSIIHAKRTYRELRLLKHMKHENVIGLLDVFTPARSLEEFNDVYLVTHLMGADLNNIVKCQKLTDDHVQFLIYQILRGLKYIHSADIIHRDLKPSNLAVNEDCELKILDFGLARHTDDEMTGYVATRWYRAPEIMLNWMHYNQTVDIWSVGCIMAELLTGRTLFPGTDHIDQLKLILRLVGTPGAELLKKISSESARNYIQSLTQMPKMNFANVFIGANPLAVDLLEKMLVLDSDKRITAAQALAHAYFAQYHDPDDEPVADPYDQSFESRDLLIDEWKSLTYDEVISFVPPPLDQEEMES
GST-JNK2, sequence (P45984 whole entry): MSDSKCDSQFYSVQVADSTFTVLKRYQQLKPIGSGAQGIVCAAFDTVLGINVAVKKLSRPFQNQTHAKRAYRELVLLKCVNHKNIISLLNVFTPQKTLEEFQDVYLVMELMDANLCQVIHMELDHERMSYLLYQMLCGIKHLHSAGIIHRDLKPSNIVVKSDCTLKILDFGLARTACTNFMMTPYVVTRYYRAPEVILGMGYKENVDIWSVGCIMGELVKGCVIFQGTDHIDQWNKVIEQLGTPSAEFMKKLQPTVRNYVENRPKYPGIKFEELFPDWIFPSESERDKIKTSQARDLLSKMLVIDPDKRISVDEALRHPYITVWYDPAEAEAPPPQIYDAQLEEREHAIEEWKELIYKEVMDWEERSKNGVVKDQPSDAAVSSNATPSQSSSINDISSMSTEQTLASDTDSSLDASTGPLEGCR
JNK3, sequence (P53779 whole entry, species assumed): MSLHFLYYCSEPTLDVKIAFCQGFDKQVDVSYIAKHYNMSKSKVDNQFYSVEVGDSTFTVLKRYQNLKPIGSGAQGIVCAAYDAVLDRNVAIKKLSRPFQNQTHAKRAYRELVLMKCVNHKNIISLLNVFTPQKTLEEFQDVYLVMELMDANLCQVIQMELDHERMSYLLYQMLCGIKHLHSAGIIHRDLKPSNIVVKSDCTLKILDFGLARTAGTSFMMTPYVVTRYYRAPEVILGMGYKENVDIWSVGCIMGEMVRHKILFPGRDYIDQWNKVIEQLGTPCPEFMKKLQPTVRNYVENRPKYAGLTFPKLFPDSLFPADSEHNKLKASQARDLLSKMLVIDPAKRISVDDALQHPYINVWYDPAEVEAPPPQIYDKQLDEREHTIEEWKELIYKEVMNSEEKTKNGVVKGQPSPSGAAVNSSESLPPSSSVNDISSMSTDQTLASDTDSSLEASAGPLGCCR

For the molecule `O=C(CNS(=O)(=O)c1ccc(CNC(=O)c2ccc(Cl)cc2)s1)NCCNc1ncc(C(F)(F)F)cc1Cl` [Example 1, 4chloro-N-({5-[({2-[(2-{[3-chloro-5-(trifluoromethyl)pyridin-2-yl]amino}ethyl)amino]-2-oxoethyl}amino)sulfonyl]thien-2-yl}methyl)benzamide], the IC50 against JNK3 was 1.2 µM; against ERK2 it was above 30 µM; on p38, above 30 µM; at GST-JNK2, 2.7 µM.

As for `O=C(CNS(=O)(=O)c1ccc(CNC(=O)c2ccc(Cl)cc2)s1)Nc1cccc(S(=O)(=O)C(F)(F)F)c1` [Example 6, 4-chloro-N-[(5-{[(2-oxo-2-{3-[(trifluoromethyl)sulfonyl]anilino)ethyl)amino]sulfonyl}thien-2-yl)methyl]benzamide], the IC50 against JNK3 is 0.64 µM; on ERK2 it was above 30 µM; on p38, above 30 µM; on GST-JNK2 it was 1.3 µM.
